The subject of series [1] is Panc1 cells. Format: cell-based, human. As for the experimental part: FIG. 18. Chart showing viability of Panc1 cells. Vertical axis: viability as a percentage of the viability of mock-transfected cells, 72 hours following transfection with the indicated siRNA. Dotted line indicates 50% reduction in viability. For all the differences, p<0.05 relative to the mock-transfected cells.
The effect of siRNA-mediated down-regulation of EMT-related genes on viability of Panc1 cancer cells was measured as follows: siRNAs targeting the indicated genes, namely SLUG (SNAI2), SNAI1 TWIST, Zeb1, Zeb2, Goosecoid, and E12 (TCF3), were designed and synthetized by IDT-Syntezza, using 2 different siRNA's per target (Table 3). Panc1 cells were transfected with the siRNAs using Lipofectamine®. 72 hrs post-transfection, cell viability was tested by Methylene blue (MB) assay. Gemzar® was used as a positive control for cell killing.

In series [2] the test system is normal mice. The experiment in a line: Toxicity study of LODER-driven siRNA in normal mice. It is filed as in vivo. The note with it: intraperitoneally injected. As for the experimental part: (§1) To study the toxic potential of the LODER-driven siRNA, we compared the effect of the siG12D LODER (16, 32 and 64 μg siG12D/kg weight) to that of the empty LODER and to sham-operated or untreated animals. LODERs were implanted into the pancreas of normal mice and rats, both males and females of both species. In parallel, the same and higher doses of siG12D were intraperitoneally injected into normal mice and rats (16, 160 and 320 μg siG12D/kg weight). The duration of this study was 2 weeks in mice and 8 weeks in rats. […] Based on the lack of adverse reaction following siRNA treatment, the maximum dose of 0.32 mg siRNA/kg body weight was considered as not constituting an acute toxicity risk.

Series [3] concerns Akt. The experiment in a line: Orthotopic Panc1-LUC tumors, Akt immunohistochemistry. It is filed as in vivo, human. The following applies: 39 days post-treatment, IH.
Description: For this purpose, Panc1-LUC or Capan1-LUC cells were injected into the tail of the mouse pancreas via an incision. Tumor development was assessed by in vivo Luciferase activity. […] Two LODERs were stitched to the pancreatic tumor via a laparotomy.
Here, tumor tissues were tested from mice bearing pancreatic Panc1-LUC-derived tumors from 4 treatment groups: untreated, injected with siG12D or implanted with empty LODERs or siG12D LODERs. Thirty nine days post-treatment, we performed IH analysis of tumor tissues for Akt and ERK.
For series [4], the system named is Zeb1, Slug, E-Cadherin. The experiment in a line: Expression of genes characteristic of EMT. Format: cell-based, human. The following applies: in vitro, normalized to the untreated cells. From the text: FIG. 9. Effect of the siG12DDDD on expression levels of metastasis-facilitating genes. Expression levels are normalized to the untreated cells.
Treatment of siG12D in vitro was followed by measurement of genes whose expression (high or low) is characteristic of EMT.

For series [5], the system named is PancO2 cell. The experiment in a line: PancO2 cell growth in vitro. It is filed as cell-based, mouse.
Series [6] concerns P-Erk. The series can be described thus: Western blot of KRAS downstream effector P-Erk. It is filed as cell-based, human. The note with it: 36 hrs after transfection, normalized to β-actin. From the text: (§2) FIG. 19. Treatment with anti-k-ras siRNA reduces levels of downstream effector proteins. Panc1 cells were left untreated (u/t) or transiently transfected with siG12D, non-targeting scrambled siRNA (si-scr) or mock transfected. A. Shown are representative blots of KRAS, P-Erk, P-Akt, and β-actin. B. Quantitation of protein expression, expressed as average±S.E.M. Numbers were normalized to the level of β-actin, then the resulting number was normalized to the expression in scrambled siRNA-transfected cells, which was set as 100%. Student's t-test was used to calculate(p) compared to mock-transfected cells.
(§3) To confirm the specific action of siG12D on the K-ras signaling pathway, KRAS, level of activation of the KRAS downstream effectors ERK and Akt was measured following treatment with siG12D. […] 36 hrs after transfection, cells were lysed and relative levels of KRAS, P-Erk and P-Akt proteins were assessed by Western blot analysis. […]
(§4) Western blot assays were carried by homogenizing cells in lysis buffer A (0.25M sucrose, 20 mM Tris pH 7.6, 1.5 mM MgCl2, 10% glycerol, 1 mM EDTA and “cOmplete mini” protein inhibitor cocktail (Roche Diagnostics)), incubated on ice for 10 min, centrifuged at 12,000 rpm for 15 min at 4° C., and supernatants were collected. […] Results are expressed as ratio of protein of interest/β-actin to correct for amount of protein loaded in each sample.
In general terms: In western blotting, separated proteins are transferred to a membrane and probed.

Series [7] concerns K-ras mRNA. The note with it: read-out: K-ras mRNA levels, half-maximal inhibitory concentration (IC50); Panc1 cells transfected; Real-Time PCR, HPRT and UBC endogenous controls. As to the method:
Panc1 cells, human pancreatic carcinoma cells that carry the […] in the K-ras gene, were mock-transfected or transfected with siG12D or control scrambled siRNA (si-scr). The relative K-ras mRNA levels were assessed by Real-Time PCR, with Hypoxantine PhosphoRybosyl Transferase (HPRT) and Ubiquitin C (UBC) used as endogenous controls.
(In general: In qPCR the cycle at which signal appears reflects the starting amount.)

Series [8] relates to Panc1 cells. The series can be described thus: Migration assay (modified Boyden chamber). Format: cell-based, human. The note with it: transfected cells, relative to untreated cells.
The test system of series [9] is P-Akt. The experiment in a line: Western blot of KRAS downstream effector P-Akt. Format: cell-based, human. The note with it: 36 hrs after transfection, normalized to β-actin.
Description: as §2, §3, §4

The subject of series [10] is Panc-1 cells. The experiment in a line: Scratch assay. It is filed as cell-based, human. The following applies: after 24 hours, light microscopy. As for the experimental part:
FIG. 7. siG12D reduces EMT in Panc1 cells. A. Migration assay. Panc-1 cells were transfected with siG12D or non-targeting control (scrambled) or were treated with TGFβ (positive control). The migration ability was assessed using a modified Boyden chamber assay. The percentage of migrated cells relative to untreated cells is presented. B. Scratch assay. Panc-1 cells were mock-transfected or transfected in vitro with scrambled siRNA or siG12D, then were seeded in 6 W plates. After 24 hours, the cells were reseeded in 24 W plates to form a confluent culture. One day after reseeding, the cells were scratched with a plastic tip. […]
FIG. 8. Light microscopy images of migration of siG12D-DDD treated cells in a scratch assay, showing the inhibitory effect of siG12D on cellular migration.
In order to study the effects of siG12D on the EMT process and its consequent increased cellular migration and motility, we conducted a series of experiments in which we examined different aspects of this process. We analyzed the migration characteristics of Panc1 cells following transfection with siG12D or scrambled siRNA, using the scratch and transwell-migration assays. TGF-β was used as a positive control. […] To test migration through a scratch assay. […]

Series [11] relates to normal rats. The experiment in a line: Toxicity study of LODER-driven siRNA in normal rats. The following applies: intraperitoneally injected. Format: in vivo. As to the method: as §1
The test system of series [12] is Panc1 cells. The series can be described thus: Cell viability by Methylene Blue test, siRNA alone and with Gemzar. It is filed as cell-based, human. The note with it: 72 h; 1 hr of treatment with 10 μM Gemzar after transfection. As to the method: FIG. 15. Gemzar® enhances siG12D-DDD effect. Panc1 cells were transfected using Lipofectamine™ with unmodified and modified siG12D and a scrambled (non-targeting) siRNA control molecule or were mock transfected (no siRNA). Cell viability was assessed 72 hrs post-transfection by the Methylene Blue (MB) test. Additional groups were transfected as described above, followed by 1 hr of treatment with 10 μM Gemzar®. The numbers 1-4 in the last column relate to the percent of inhibition of cellular growth, wherein the inhibition seen with the unmodified siRNA was assigned the value of 100%. 4, 3, 2, and 1 refer respectively to 75-100%, 50-75%, 25-50%, and 0-25% of the inhibition seen with the unmodified siRNA.
Experimental procedure: Panc1 cells were transfected using Lipofectamine™ with unmodified and modified siG12D and a scrambled (non-targeting) siRNA control molecule or were mock transfected (no siRNA). Cell viability was assessed 72 hrs post-transfection by the Methylene Blue (MB) test. Additional groups were transfected as described above, followed by 1 hr of treatment with 10 μM Gemzar®. At the exemplary time point of 72 h, Gemzar® enhanced the effect of siG12D by nearly 10% (FIG. 15). […] Other time points, for example 48h, 72 h, 96 h and 120 h, may be utilized in additional studies.

In series [1], “Goosecoid-1: siRNA targeting Goosecoid; sense agcauguucagcaucgacadTdT, antisense ugucgaugcugaacaugcudTdT; SEQ ID No's 127-128 (sense AGCAUGUUCAGCAUCGACATT; antisense UGUCGAUGCUGAACAUGCUTT; DNA at 20, 21, other sugars and backbone not given here)” yielded a reduction in viability of around 50%.
On the same count and under the same terms, in the case of “SNAI1-2: siRNA targeting SNAI1; sense augcacauccgaagccacadTdT, antisense uguggcuucggaugugcaudTdT; SEQ ID No's 124-125” it was “greater than 50%”; in that of “SNAI2-2: siRNA targeting SLUG (SNAI2); sense cuggucaagaagcauuucadTdT, antisense ugaaaugcuucuugaccagdTdT; SEQ ID No's 104-105 (sense CUGGUCAAGAAGCAUUUCATT; antisense UGAAAUGCUUCUUGACCAGTT; DNA at 20, 21, other sugars and backbone not given here)”, around 50%.
For the compound “siG12D: siRNA against K-ras G12D; sense GUUGGAGCUGAUGGCGUAGdTdT, antisense CUACGCCAUCAGCUCCAACdTdT (SEQ ID No: 41-42) (sense GUUGGAGCUGAUGGCGUAGTT; antisense CUACGCCAUCAGCUCCAACTT; DNA at 20, 21, other sugars and backbone not given here)”, in [1], the reduction in viability is given as around 50%. The “maximum dose considered as not constituting an acute toxicity risk” value in series [2] turned out to be 0.32 mg siRNA/kg body weight. The Akt phosphorylation result in [3] is “induced”. Further, in [4], the “expression of epithelial genes (E-Cadherin)” value is “augmented expression”; the “expression of mesenchymal genes (Zeb1 and Slug)” value was “reduced expression”. In addition, the PancO2 cell growth entry in series [5] is given as “inhibited PancO2 cell growth to a similar extent as Panc1 cells”. In series [6], the “level of P-Erk” value was “decreased”. In addition, the IC50 in series [7] stood at 0.067 nM. In addition, in series [8], the “inhibition of Panc1 migration” value was “more than 30%”. Further, the “level of P-Akt” value in series [9] is “decreased”. Besides, in series [10], the “migration in scratch assay” value is listed as “barely migrated”. The “maximum dose considered as not constituting an acute toxicity risk” value in series [11] amounted to 0.32 mg siRNA/kg body weight.
In the case of “Zeb1-2: siRNA targeting Zeb1; sense cagguguaagcgcagaaagdTdT, antisense cuuucugcgcuuacaccugdTdT; SEQ ID No's 112-113 (sense CAGGUGUAAGCGCAGAAAGTT; antisense CUUUCUGCGCUUACACCUGTT; DNA at 20, 21, other sugars and backbone not given here)”, in series [1], the reduction in viability was around 50%.
Same read-out and setting: as for “TWIST-2: siRNA targeting TWIST; sense ggugugcguccagccguugdTdT, antisense caacggcuggacgcacaccdTdT; SEQ ID No's 108-109 (sense GGUGUGCGUCCAGCCGUUGTT; antisense CAACGGCUGGACGCACACCTT; DNA at 20, 21, other sugars and backbone not given here)”, the entry is “greater than 50%”; as for “TCF3-1: siRNA targeting E12 (TCF3); sense cuccuggacuucagcaugadTdT, antisense ucaugcugaaguccaggagdTdT; SEQ ID No's 131-132 (sense CUCCUGGACUUCAGCAUGATT; antisense UCAUGCUGAAGUCCAGGAGTT; DNA at 20, 21, other sugars and backbone not given here)”, “greater than 50%”.
As for `Nc1ccn([C@@H]2O[C@H](CO)[C@@H](O)C2(F)F)c(=O)n1` [Gemzar®, 2′,2′-difluorodeoxycytidine], the “enhancement of the effect of siG12D on cell viability” value in series [12] is on record as around 10%.

(Values after US20140314854A1, “METHODS AND COMPOSITIONS FOR RNAi-BASED CANCER TREATMENT” (Silenseed Ltd., priority 2013, published 2014).)
